System: serine protease such as thrombin
Assay: Stabilization of ProGRP in serum by addition of PMSF (Example 2)
Format: biochemical
Details: PMSF added to serum, room temperature storage
Description: After PMSF (manufactured by Sigma-Aldrich Co.) was added to serum, ProGRP 31-98 antigen amino no acid synthesized by the Fmoc method was added thereto. After the mixture was stored at room temperature, the concentration of ProGRP was assayed using the Architect ProGRP. […] PMSF is a substance that is used to inactivate the activity of an enzyme of a serine protease such as thrombin and the presence of a protease such as thrombin can be considered to be the cause of ProGRP inactivation.

## O=S(=O)(F)Cc1ccccc1 [PMSF, Phenylmethanesulfonyl Fluoride]
  effect on decrease in the activity of ProGRP in serum: significantly suppressed
